Test results as given in US20250099466A1 (BRISTOL-MYERS SQUIBB COMPANY, priority 2021, published 2025).

Test system: subjects undergoing elective total knee replacement surgery
Experiment: Phase 2 study of milvexian versus enoxaparin after elective total knee replacement: venous thromboembolism events
Format: in vivo, human
Conditions: for Major VTE % / Major VTE n / Total VTE % / Total VTE RR vs. Enoxaparin / Total VTE n: mITT, Day 14; for Asymptomatic distal DVT % / Asymptomatic distal DVT n / Asymptomatic proximal DVT % / Asymptomatic proximal DVT n / Death n / Distal DVT % / Distal DVT n / Non-fatal PE n / Proximal DVT % / Proximal DVT n / Symptomatic distal DVT n / Symptomatic proximal DVT n / Non-fatal PE % / Symptomatic distal DVT %: through day 14; for incidence of segments with the most severe DVT severity score of 3: subjects with DVT on venography
Text: [table] […] The study used a prospective, randomized, open-label, blinded endpoint (PROBE) design. […] The enoxaparin control arm likewise completed its pre-specified randomization of 300 subjects. […] FIG. 1 provides the study design, including number of subjects randomized into each study arm. […] An adaptive design was used to optimize patient recruitment for the dose-response evaluation. The number of dose regimens, the option to implement additional once daily dosing regimens, and the randomization ratio were based on the results of the periodic reviews and interim analysis. […] Randomization was performed postoperatively using a centralized interactive web-based response system and was stratified by geographic region of the study centers. […] Enoxaparin was given subcutaneously at a dose of 40 mg once daily and was started either the evening before or 12 to 24 hours after surgery. […] The primary efficacy outcome was venous thromboembolism, defined as the composite of asymptomatic deep-vein thrombosis (detected by mandatory unilateral venography performed 10 to 14 days after surgery), confirmed symptomatic venous thromboembolism (symptomatic deep-vein thrombosis of the leg or nonfatal pulmonary embolism), or death. […] Factor XI antisense oligonucleotide for prevention of venous thrombosis. N Engl J Med 2015; 372:232-40; Fuji et al., A dose-ranging study evaluating the oral factor Xa inhibitor edoxaban for the prevention of venous thromboembolism in patients undergoing total knee arthroplasty. J Thromb Haemost 2010; 8:2458-68). The major secondary efficacy outcomes were: (a) proximal deep-vein thrombosis (symptomatic or asymptomatic), (b) distal deep-vein thrombosis (symptomatic or asymptomatic) (c) nonfatal pulmonary embolism, and (d) death. An exploratory efficacy outcome was the extent of venous thrombosis on venography, which was assessed by the adjudication committee using predefined categories. […] Statistics in Medicine 2014; 33:1646-61). […] Venograms, assessed by independent blinded adjucators, were used to identify, and to assign DVT severity scores to, subjects with DVT. […] For each evaluated segment, a severity score was assigned depending on the presence and, if present, extension of the clot in the segment of the vein. Severity scores, on a scale of 0-3, were assigned as follows: 0=no clot; 1=less than ⅓; 2=greater than or equal to ⅓ but less than ⅔; and 3=greater than ⅔ the length of the vein segment.

[1] = milvexian all regimens combined
[2] = milvexian combined BID regimens

Compound: C[C@@H]1CCC[C@H](n2cnc(-c3cc(Cl)ccc3-n3cc(Cl)nn3)cc2=O)c2cc(ccn2)-c2c(cnn2C(F)F)NC1=O [milvexian, (5R,9S)-9-(4-(5-chloro-2-(4-chloro-1H-1,2,3-triazol-1-yl)phenyl)-6-oxopyrimidin-1(6H)-yl)-21-(difluoromethyl)-5-methyl-21H-3-aza-1(4,2)-pyridina-2(5,4)-pyrazolacyclononaphan-4-one]
- Major VTE % (milvexian 25 mg BID): 0.8%
- Major VTE n (milvexian 25 mg BID): 1 n
- Total VTE % (milvexian 25 mg BID): 21.0%
- Total VTE RR vs. Enoxaparin (milvexian 25 mg BID): 0.97
- Total VTE n (milvexian 25 mg BID): 27 n
- Major VTE % (milvexian 25 mg BID, listed as Milvexian): (0.8%)
- Asymptomatic distal DVT % (milvexian 25 mg BID): 20.2%
- Asymptomatic distal DVT n (milvexian 25 mg BID): 26 n
- Asymptomatic proximal DVT % (milvexian 25 mg BID): 0.8%
- Asymptomatic proximal DVT n (milvexian 25 mg BID): 1 n
- Death n (milvexian 25 mg BID): 0 n
- Distal DVT % (milvexian 25 mg BID): 20.2%
- Distal DVT n (milvexian 25 mg BID): 26 n
- Non-fatal PE n (milvexian 25 mg BID): 0 n
- Proximal DVT % (milvexian 25 mg BID): 0.8%
- Proximal DVT n (milvexian 25 mg BID): 1 n
- Symptomatic distal DVT n (milvexian 25 mg BID): 0 n
- Symptomatic proximal DVT n (milvexian 25 mg BID): 0 n
- Major VTE n (milvexian 25 mg once daily): 0 n
- Total VTE % (milvexian 25 mg once daily): (25.0%)
- Total VTE RR vs. Enoxaparin (milvexian 25 mg once daily): 1.00
- Total VTE n (milvexian 25 mg once daily): 7 n
- Major VTE % (milvexian 50 mg BID): 0.8%
- Major VTE n (milvexian 50 mg BID): 1 n
- Total VTE % (milvexian 50 mg BID): 11.3%
- Total VTE RR vs. Enoxaparin (milvexian 50 mg BID): 0.53
- Total VTE n (milvexian 50 mg BID): 14 n
- Major VTE % (milvexian 50 mg BID, listed as Milvexian): (0.8%)
- incidence of segments with the most severe DVT severity score of 3 (milvexian 50 mg BID): 0%
- Asymptomatic distal DVT % (milvexian 50 mg BID): 10.5%
- Asymptomatic distal DVT n (milvexian 50 mg BID): 13 n
- Asymptomatic proximal DVT n (milvexian 50 mg BID): 0 n
- Death n (milvexian 50 mg BID): 0 n
- Distal DVT % (milvexian 50 mg BID): 10.5%
- Distal DVT n (milvexian 50 mg BID): 13 n
- Non-fatal PE % (milvexian 50 mg BID): 0.8%
- Non-fatal PE n (milvexian 50 mg BID): 1 n
- Proximal DVT n (milvexian 50 mg BID): 0 n
- Symptomatic distal DVT n (milvexian 50 mg BID): 0 n
- Symptomatic proximal DVT n (milvexian 50 mg BID): 0 n
- Major VTE % (milvexian 50 mg once daily): 1.6%
- Major VTE n (milvexian 50 mg once daily): 2 n
- Total VTE % (milvexian 50 mg once daily): (23.6%)
- Total VTE RR vs. Enoxaparin (milvexian 50 mg once daily): 1.15
- Total VTE n (milvexian 50 mg once daily): 30 n
- Major VTE % (milvexian 50 mg once daily, listed as Milvexian): (1.6%)
- Major VTE % (milvexian 100 mg BID): 1.5%
- Major VTE n (milvexian 100 mg BID): 2 n
- Total VTE % (milvexian 100 mg BID): 9.0%
- Total VTE RR vs. Enoxaparin (milvexian 100 mg BID): 0.42
- Total VTE n (milvexian 100 mg BID): 12 n
- Major VTE % (milvexian 100 mg BID, listed as Milvexian): (1.5%)
- incidence of segments with the most severe DVT severity score of 3 (milvexian 100 mg BID): 1.52%
- Asymptomatic distal DVT % (milvexian 100 mg BID): 7.5%
- Asymptomatic distal DVT n (milvexian 100 mg BID): 10 n
- Asymptomatic proximal DVT % (milvexian 100 mg BID): 0.7%
- Asymptomatic proximal DVT n (milvexian 100 mg BID): 1 n
- Death n (milvexian 100 mg BID): 0 n
- Distal DVT % (milvexian 100 mg BID): 7.5%
- Distal DVT n (milvexian 100 mg BID): 10 n
- Non-fatal PE % (milvexian 100 mg BID): 0.7%
- Non-fatal PE n (milvexian 100 mg BID): 1 n
- Proximal DVT % (milvexian 100 mg BID): 0.7%
- Proximal DVT n (milvexian 100 mg BID): 1 n
- Symptomatic distal DVT % (milvexian 100 mg BID): 0.7%
- Symptomatic distal DVT n (milvexian 100 mg BID): 1 n
- Symptomatic proximal DVT n (milvexian 100 mg BID): 0 n
- Major VTE n (milvexian 200 mg BID): 0 n
- Total VTE % (milvexian 200 mg BID): 7.6%
- Total VTE RR vs. Enoxaparin (milvexian 200 mg BID): 0.37
- Total VTE n (milvexian 200 mg BID): 10 n
- incidence of segments with the most severe DVT severity score of 3 (milvexian 200 mg BID): 2.73%
- Asymptomatic distal DVT % (milvexian 200 mg BID): 7.6%
- Asymptomatic distal DVT n (milvexian 200 mg BID): 10 n
- Asymptomatic proximal DVT n (milvexian 200 mg BID): 0 n
- Death n (milvexian 200 mg BID): 0 n
- Distal DVT % (milvexian 200 mg BID): 7.6%
- Distal DVT n (milvexian 200 mg BID): 10 n
- Non-fatal PE n (milvexian 200 mg BID): 0 n
- Proximal DVT n (milvexian 200 mg BID): 0 n
- Symptomatic distal DVT n (milvexian 200 mg BID): 0 n
- Symptomatic proximal DVT n (milvexian 200 mg BID): 0 n
- Major VTE n (milvexian 200 mg once daily): 0 n
- Total VTE % (milvexian 200 mg once daily): (6.5%)
- Total VTE RR vs. Enoxaparin (milvexian 200 mg once daily): 0.30
- Total VTE n (milvexian 200 mg once daily): 8 n
- incidence of segments with the most severe DVT severity score of 3 (milvexian 200 mg once daily): 0%
- Total VTE % [1]: 13.6%
- Total VTE n [1]: 108 n
- reduction of total VTE compared to enoxaparin (milvexian at total daily doses of ≥200 mg): > 50%
- Total VTE % [2]: 12.2%
- Total VTE n [2]: 63 n
- Asymptomatic distal DVT % [2]: 11.4%
- Asymptomatic distal DVT n [2]: 59 n
- Asymptomatic proximal DVT % [2]: 0.4%
- Asymptomatic proximal DVT n [2]: 2 n
- Death n [2]: 0 n
- Distal DVT % [2]: 11.4%
- Distal DVT n [2]: 59 n
- Non-fatal PE % [2]: 0.4%
- Non-fatal PE n [2]: 2 n
- Proximal DVT % [2]: 0.4%
- Proximal DVT n [2]: 2 n
- Symptomatic distal DVT % [2]: 0.2%
- Symptomatic distal DVT n [2]: 1 n
- Symptomatic proximal DVT n [2]: 0 n
